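Test compounds were applied to cells in 96-well plates for 48 hours at 5 doses. GI50: concentration for 50% inhibition of growth.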 The source made the active and inactive calls. Rule as the data show it: active = GI50 up to about 1.1 µM and inactive = higher.
Tests used:
Assay in all cases: NCI tumour cell line growth inhibition, 48 h
A549 = system: A549
ACHN = system: ACHN
EKVX = system: EKVX
HCC 2998 = system: HCC 2998
HOP-92 = system: HOP-92
HT-29 = system: HT-29
KM12 = system: KM12
MDA-N = system: MDA-N
NCI-H522 = system: NCI-H522
OVCAR-3 = system: OVCAR-3
OVCAR-4 = system: OVCAR-4
PC-3 = system: PC-3
SK-MEL-2 = system: SK-MEL-2
SK-MEL-5 = system: SK-MEL-5
SK-OV-3 = system: SK-OV-3
SN12C = system: SN12C
SNB-19 = system: SNB-19
SR = system: SR
CCRF-CEM = system: CCRF-CEM

Structure (SMILES)	GI50 (A549)	GI50 (ACHN)	GI50 (EKVX)	GI50 (HCC 2998)	GI50 (HOP-92)	GI50 (HT-29)	GI50 (KM12)	GI50 (MDA-N)	GI50 (NCI-H522)	GI50 (OVCAR-3)	GI50 (OVCAR-4)	GI50 (PC-3)	GI50 (SK-MEL-2)	GI50 (SK-MEL-5)	GI50 (SK-OV-3)	GI50 (SN12C)	GI50 (SNB-19)	GI50 (SR)	GI50 (CCRF-CEM)
O=c1cc(-c2ccc(O)c(O)c2)oc2cc(O[C@H]3O[C@H](CO)[C@@H](O)[C@H](O)[C@H]3O)cc(O)c12	79.8 µM (inactive)	65.5 µM (inactive)	56.6 µM (inactive)	> 100 µM (inactive)	> 100 µM (inactive)	67.8 µM (inactive)	38 µM (inactive)	> 100 µM (inactive)	41.3 µM (inactive)	81.7 µM (inactive)	> 100 µM (inactive)	70.6 µM (inactive)	99.8 µM (inactive)	70.1 µM (inactive)	> 100 µM (inactive)	> 100 µM (inactive)	75.9 µM (inactive)	5.69 µM (inactive)	
COC(=O)CN1CCN(c2cccc3c2CCCC3)CC1	69.5 µM (inactive)	72.9 µM (inactive)	66.2 µM (inactive)	29.6 µM (inactive)	0.0248 µM (active)	18.2 µM (inactive)	43.9 µM (inactive)	> 100 µM (inactive)	67.6 µM (inactive)	19.9 µM (inactive)	52.8 µM (inactive)	64.6 µM (inactive)	> 100 µM (inactive)	23.2 µM (inactive)		56 µM (inactive)	> 100 µM (inactive)	35.5 µM (inactive)	47.9 µM (inactive)
CCOC(=O)c1c(SC(=O)c2ccc(Cl)cc2)n(-c2ccccc2)c(=S)n(-c2ccccc2)c1=O	> 100 µM (inactive)	> 100 µM (inactive)	> 100 µM (inactive)	> 100 µM (inactive)	> 100 µM (inactive)	> 100 µM (inactive)	> 100 µM (inactive)	> 100 µM (inactive)	> 100 µM (inactive)	> 100 µM (inactive)	> 100 µM (inactive)	> 100 µM (inactive)			> 100 µM (inactive)	> 100 µM (inactive)	> 100 µM (inactive)	> 100 µM (inactive)	> 100 µM (inactive)
O=C(O)CSC1=NC(=O)C2(NN1)c1ccccc1-c1ccccc12	> 10 µM (inactive)	> 10 µM (inactive)	> 10 µM (inactive)	> 10 µM (inactive)	> 10 µM (inactive)	> 10 µM (inactive)	> 10 µM (inactive)	> 10 µM (inactive)	> 10 µM (inactive)		> 10 µM (inactive)	> 10 µM (inactive)		> 10 µM (inactive)	> 10 µM (inactive)	> 10 µM (inactive)	> 10 µM (inactive)	> 10 µM (inactive)	> 10 µM (inactive)
CC(=O)Nc1ccc2nc(-c3ccccn3)c(-c3ccccn3)nc2c1	> 100 µM (inactive)	> 100 µM (inactive)	> 100 µM (inactive)	> 100 µM (inactive)	> 100 µM (inactive)		> 100 µM (inactive)	> 100 µM (inactive)	> 100 µM (inactive)	> 100 µM (inactive)	> 100 µM (inactive)	> 100 µM (inactive)	> 100 µM (inactive)	> 100 µM (inactive)		> 100 µM (inactive)	> 100 µM (inactive)	> 100 µM (inactive)	> 100 µM (inactive)
CCOc1cc(NC(C)=O)ccc1C(=O)NN1C(=O)CSC1c1ccccc1 (centres undefined)	77.3 µM (inactive)	> 100 µM (inactive)	91 µM (inactive)	> 100 µM (inactive)	42.5 µM (inactive)	> 100 µM (inactive)	71.4 µM (inactive)	84.9 µM (inactive)	43.2 µM (inactive)	96.6 µM (inactive)	84.1 µM (inactive)	78.7 µM (inactive)	> 100 µM (inactive)	34.4 µM (inactive)	> 100 µM (inactive)	> 100 µM (inactive)	> 100 µM (inactive)	9.86 µM (inactive)	37.8 µM (inactive)
CC1=NN(c2ccccc2Cl)C2(C1)C(Cl)C(=O)N2c1nc2ccccc2s1 (centres undefined)	55.7 µM (inactive)	94.8 µM (inactive)	> 100 µM (inactive)	> 100 µM (inactive)	88.7 µM (inactive)	51.5 µM (inactive)	55.6 µM (inactive)	62.7 µM (inactive)	17.9 µM (inactive)	17.3 µM (inactive)	> 100 µM (inactive)	> 100 µM (inactive)	48.9 µM (inactive)	32.3 µM (inactive)	24.7 µM (inactive)	31.8 µM (inactive)	52.7 µM (inactive)	21.1 µM (inactive)	

— ChEMBL document CHEMBL1201862, “PubChem BioAssay data set” (2004)
